{"source": "paper PMC4601023", "about": "“Novel anticancer agent, SQAP, binds to focal adhesion kinase and modulates its activity” (Scientific Reports, 2015)", "type_in_all_cases": "cell-based, human", "key": {"[1]": {"tested_on": "paxillin phosphorylation at Y118 in HUVEC", "assay": "Paxillin phosphorylation in HUVEC, Western blotting", "settings": "total paxillin unaltered", "from_the_text": "Furthermore, we looked at FAK signaling pathway to validate our results. Paxillin binds to FAK 919–938 residues which is a sequence contained within the region where SQAP is predicted to bind. Binding between paxillin and FAK results in paxillin phosphorylation at Y118[35][36]. Thus, we examined paxillin phosphorylation. […] Additionally, we studied Akt phosphorylation at S473 on account of FAK is a known factor in control of Akt activity. We observed that Akt phosphorylation was diminished when treated with SQAP or SQMG for 21 h (see Supplementary Fig. S3).\nCells were harvested and solubilized in RIPA buffer (20 mM Tris-HCl, pH 7.5, 1% Sodium deoxycholate, 150 mM NaCl, 5 mM EDTA, 1% Triton X-100, 0.1% SDS, 0.1%, 1 mM PMSF, 1 mM vanadate and 1 μg/mL leupeptin). Protein quantification was determined using the DC protein assay kit (Bio-Rad, Hercules, CA, USA). A total of 15 μg of each protein sample were separated by SDS–PAGE gels and blotted onto polyvinylidene difluoride membranes (Merck, Kenilworth, NJ, US). After blocking for 1 h with Blocking-One (Nacalai Tesque, Kyoto, Japan), proteins were detected by incubating the membranes with the primary antibody at 4 °C overnight (anti-Y397 2:2000, anti-Y925 5:2000 and anti-FAK 0.5:2000) followed by incubation with horseradish peroxidase-conjugated secondary antibodies at room temperature for 1 h (anti-mouse 0.5:2000 and anti-rabbit 0.4:2000)."}, "[2]": {"tested_on": "HUVEC cells", "assay": "Wound healing assay, HUVEC", "settings": "11 h, 1% FBS and VEGF 50 ng/mL, control 32%", "method": "Figure 6 SQAP inhibits cell migration in vitro. (A) HUVEC cells were seeded and grown to 100% confluence in 60-mm diameter dishes. After generating a single scratch in the monolayer, the cells were cultured for 11 h in medium containing 1% FBS and VEGF (50 ng/mL) in the presence or absence of SQAP. Photographs were taken immediately after 11 h. (B) The change in wound width was measured as described in the Materials and Methods. (C) A549 cells were seeded and grown to 100% confluence in 60-mm diameter dishes. After generating a single scratch in the monolayer, the cells cultured for the 25 h in media containing 1% FBS and fibronectin (10 μg/ml) treated with SQAP or vehicle. Photographs were collected immediately after wounding and after 25 h. (D) The change in wound width was measured as described in the Materials and Methods. Cell migration was additionally examined in 96 well plates. HUVEC (E) and A549 cells (F) were seeded and grown into confluence overnight. After removing the stoppers, the live cells were stained with CellTracker^TM Green and incubated for the indicated time. The fluorescent emission signal was obtained with a plate reader. […]\nWound healing assay was analyzed by microscope imaging. […] Wound diameters in the images were measured and percentage of wound size was calculated as follows: [wound diameter at 11 or 25 h/wound diameter at 0 h] x 100."}, "[3]": {"tested_on": "VEGF mRNA expression in HUVEC cells", "assay": "VEGF mRNA expression, quantitative real-time RT-PCR, HUVEC", "settings": "6 h SQAP treatment", "method": "Figure 5 Effect of SQAP on FAK phosphorylation. The level of FAK phosphorylated at Y397 and Y925 was evaluated by Western blotting. (A) HUVEC cells were serum-depleted for 20 h before treatment with SQAP or vehicle for 30 min followed by treatment with or without VEGF (50 ng/mL) for 30 min. (B) HUVEC cells were cultured as stated in section A and then treated with SQAP, SQMG or SQP. (C) A549 cells were serum-deprived for 48 h before pretreatment with SQAP or vehicle followed by treatment with or without fibronectin (10 μg/mL) for 30 min. (D) A549 cells were cultured as stated in section C and then treated with SQAP, SQMG or SQP. (E–F) HUVEC and A549 cells were treated with SQAP for 6 h before adding an RNA stabilization reagent and prepared for Quantitative real-time RT-PCR.\nTotal RNA was prepared using an RNeasy Mini Kit (QIAGEN Inc., Hilden, Germany) according to the manufacturer’s instructions and then reverse-transcribed to cDNA with Transcriptor First Strand cDNA Synthesis Kit (Roche Applied Science, Mnnheim, Germany). Measurement of gene expression by quantitative analysis was performed using the LightCycler system (Roche Applied Science). Quantitative real-time RT-PCR analysis of β-actin, TSP-1 and VEGF-A expression were performed using the LightCycler FastStart DNA MasterPLUS SYBR Green I system (Roche Applied Science). […]"}}}
{"smiles": "CCCCCCCCCCCCCCCCCC(=O)OCCCO[C@H]1O[C@H](CS(=O)(=O)O)[C@@H](O)[C@H](O)[C@H]1O", "note": "[SQAP, sulfoquynovosylacylpropanediol]", "values": [{"measurement": "paxillin phosphorylation at Y118", "setting": "[1]", "value": "inhibition of paxillin-phosphorylation"}, {"measurement": "wound size", "setting": "[2]", "value": 62, "unit": "%"}, {"measurement": "VEGF production level (mRNA, RT-PCR)", "setting": "[3]", "value": "reduced"}]}
